Columns and labels:
Assay in all cases: cells
MC116 = format: functional, cell-based; conditions: Homo sapiens
Description: SANGER: Inhibition of human MC116 cell growth in a cell viability assay.

HCE-4 = format: functional, cell-based, Homo sapiens; conditions: Homo sapiens, HCE-4
Description: SANGER: Inhibition of human HCE-4 cell growth in a cell viability assay.

SK-NEP-1 = format: functional, cell-based; conditions: Homo sapiens
Description: SANGER: Inhibition of human SK-NEP-1 cell growth in a cell viability assay.

DEL = format: functional, cell-based; conditions: Homo sapiens
Description: SANGER: Inhibition of human DEL cell growth in a cell viability assay.

LB2241-RCC = format: functional, cell-based, Homo sapiens; conditions: Homo sapiens, LB2241-RCC
Description: SANGER: Inhibition of human LB2241-RCC cell growth in a cell viability assay.

COLO-679 = format: functional, cell-based, Homo sapiens; conditions: Homo sapiens, COLO-679
Description: SANGER: Inhibition of human COLO-679 cell growth in a cell viability assay.

SW13 = format: functional, cell-based, Homo sapiens; conditions: Homo sapiens, SW13
Description: SANGER: Inhibition of human SW13 cell growth in a cell viability assay.

MHH-PREB-1 = format: functional, cell-based; conditions: Homo sapiens
Description: SANGER: Inhibition of human MHH-PREB-1 cell growth in a cell viability assay.

HTC-C3 = format: functional, cell-based, Homo sapiens; conditions: Homo sapiens, HTC-C3
Description: SANGER: Inhibition of human HTC-C3 cell growth in a cell viability assay.

HL-60 = format: functional, cell-based; conditions: Homo sapiens
Description: SANGER: Inhibition of human HL-60 cell growth in a cell viability assay.

ATN-1 = format: functional, cell-based; conditions: Homo sapiens
Description: SANGER: Inhibition of human ATN-1 cell growth in a cell viability assay.

MDA-MB-175-VII = format: functional, cell-based, Homo sapiens; conditions: Homo sapiens, MDA-MB-175-VII
A498 = format: functional, cell-based, Homo sapiens; conditions: Homo sapiens, A498
Description: SANGER: Inhibition of human A498 cell growth in a cell viability assay.

OAW-42 = format: functional, cell-based, Homo sapiens; conditions: Homo sapiens, OAW-42
Description: SANGER: Inhibition of human OAW-42 cell growth in a cell viability assay.

LB373-MEL-D = format: functional, cell-based, Homo sapiens; conditions: Homo sapiens, LB373-MEL-D
Description: SANGER: Inhibition of human LB373-MEL-D cell growth in a cell viability assay.

EW-24 = format: functional, cell-based; conditions: Homo sapiens
Description: SANGER: Inhibition of human EW-24 cell growth in a cell viability assay.

RPMI-8226 = format: functional, cell-based; conditions: Homo sapiens
Description: SANGER: Inhibition of human RPMI-8226 cell growth in a cell viability assay.

IST-SL1 = format: functional, cell-based, Homo sapiens; conditions: Homo sapiens, IST-SL1
Description: SANGER: Inhibition of human IST-SL1 cell growth in a cell viability assay.

ML-2 = format: functional, cell-based; conditions: Homo sapiens
Description: SANGER: Inhibition of human ML-2 cell growth in a cell viability assay.

SCC-15 = format: functional, cell-based, Homo sapiens; conditions: Homo sapiens, SCC-15
Description: SANGER: Inhibition of human SCC-15 cell growth in a cell viability assay.

A253 cell line = format: functional, cell-based, Homo sapiens; conditions: Homo sapiens, A253
Description: SANGER: Inhibition of human A253 cell growth in a cell viability assay.

HC-1 = format: functional, cell-based; conditions: Homo sapiens
Description: SANGER: Inhibition of human HC-1 cell growth in a cell viability assay.

TGW = format: functional, cell-based; conditions: Homo sapiens
Description: SANGER: Inhibition of human TGW cell growth in a cell viability assay.

SHP77 = format: functional, cell-based, Homo sapiens, SHP-77; conditions: Homo sapiens, SHP77
Description: SANGER: Inhibition of human SHP-77 cell growth in a cell viability assay.

LB831-BLC = format: functional, cell-based, Homo sapiens; conditions: Homo sapiens, LB831-BLC
Description: SANGER: Inhibition of human LB831-BLC cell growth in a cell viability assay.

MSTO-211H = format: functional, cell-based, Homo sapiens; conditions: Homo sapiens, MSTO-211H
Description: SANGER: Inhibition of human MSTO-211H cell growth in a cell viability assay.

SNU-449 = format: functional, cell-based, Homo sapiens; conditions: Homo sapiens, SNU-449
Description: SANGER: Inhibition of human SNU-449 cell growth in a cell viability assay.

Becker = format: functional, cell-based, Homo sapiens; conditions: Homo sapiens, Becker
Description: SANGER: Inhibition of human Becker cell growth in a cell viability assay.

CAL-62 = format: functional, cell-based, Homo sapiens; conditions: Homo sapiens, CAL-62
Description: SANGER: Inhibition of human CAL-62 cell growth in a cell viability assay.

JVM-3 = format: functional, cell-based; conditions: Homo sapiens
Description: SANGER: Inhibition of human JVM-3 cell growth in a cell viability assay.

D-336MG = format: functional, cell-based, Homo sapiens; conditions: Homo sapiens, D-336MG
Description: SANGER: Inhibition of human D-336MG cell growth in a cell viability assay.

NCI-H1651 = format: functional, cell-based, Homo sapiens; conditions: Homo sapiens, NCI-H1651
Description: SANGER: Inhibition of human NCI-H1651 cell growth in a cell viability assay.

SF-539 = format: functional, cell-based, Homo sapiens; conditions: Homo sapiens, SF-539
Description: SANGER: Inhibition of human SF539 cell growth in a cell viability assay.

SW1573 = format: functional, cell-based, Homo sapiens; conditions: Homo sapiens, SW1573
Description: SANGER: Inhibition of human SW1573 cell growth in a cell viability assay.

EW-3 = format: functional, cell-based; conditions: Homo sapiens
Description: SANGER: Inhibition of human EW-3 cell growth in a cell viability assay.

BB49-HNC = format: functional, cell-based, Homo sapiens; conditions: Homo sapiens, BB49-HNC
Description: SANGER: Inhibition of human BB49-HNC cell growth in a cell viability assay.

SK-UT-1 = format: functional, cell-based, Homo sapiens; conditions: Homo sapiens, SK-UT-1
Description: SANGER: Inhibition of human SK-UT-1 cell growth in a cell viability assay.

647-V = format: functional, cell-based, Homo sapiens; conditions: Homo sapiens, 647-V
Description: SANGER: Inhibition of human 647-V cell growth in a cell viability assay.

P30-OHK = format: functional, cell-based; conditions: Homo sapiens
Description: SANGER: Inhibition of human P30-OHK cell growth in a cell viability assay.

LS-513 = format: functional, cell-based, Homo sapiens; conditions: Homo sapiens, LS-513
Description: SANGER: Inhibition of human LS-513 cell growth in a cell viability assay.

NY = format: functional, cell-based, Homo sapiens; conditions: Homo sapiens, NY
Description: SANGER: Inhibition of human NY cell growth in a cell viability assay.

G-401 = format: functional, cell-based, Homo sapiens; conditions: Homo sapiens, G-401
Description: SANGER: Inhibition of human G-401 cell growth in a cell viability assay.

H4 = format: functional, cell-based; conditions: Homo sapiens
Description: SANGER: Inhibition of human H4 cell growth in a cell viability assay.

BCPAP = format: functional, cell-based, Homo sapiens; conditions: Homo sapiens, BCPAP
Description: SANGER: Inhibition of human BCPAP cell growth in a cell viability assay.

A4-Fuk = format: functional, cell-based; conditions: Homo sapiens
Description: SANGER: Inhibition of human A4-Fuk cell growth in a cell viability assay.

NCI-H1755 = format: functional, cell-based, Homo sapiens; conditions: Homo sapiens, NCI-H1755
Description: SANGER: Inhibition of human NCI-H1755 cell growth in a cell viability assay.

YKG-1 = format: functional, cell-based, Homo sapiens; conditions: Homo sapiens, YKG-1
Description: SANGER: Inhibition of human YKG-1 cell growth in a cell viability assay.

HuCCT-1 = format: functional, cell-based, Homo sapiens, HuCCT1; conditions: Homo sapiens, HuCCT-1
Description: SANGER: Inhibition of human HuCCT1 cell growth in a cell viability assay.

NCI-H1092 = format: functional, cell-based; conditions: Homo sapiens
Description: SANGER: Inhibition of human NCI-H1092 cell growth in a cell viability assay.

TCC-SUP = format: functional, cell-based, Homo sapiens; conditions: Homo sapiens, TCC-SUP
Description: SANGER: Inhibition of human TCCSUP cell growth in a cell viability assay.

SJSA-1 = format: functional, cell-based, Homo sapiens; conditions: Homo sapiens, SJSA-1
Description: SANGER: Inhibition of human SJSA-1 cell growth in a cell viability assay.

NCI-H209 = format: functional, cell-based; conditions: Homo sapiens
Description: SANGER: Inhibition of human NCI-H209 cell growth in a cell viability assay.

GR-ST = format: functional, cell-based; conditions: Homo sapiens
Description: SANGER: Inhibition of human GR-ST cell growth in a cell viability assay.

## COC(=O)CNC(=O)C(=O)OC
MC116
  IC50: 174 µM
HCE-4
  IC50: 546 µM
SK-NEP-1
  IC50: 976 µM
DEL
  IC50: 72.3 µM
LB2241-RCC
  IC50: 537 µM
COLO-679
  IC50: 157 µM
SW13
  IC50: 639 µM
MHH-PREB-1
  IC50: 137 µM
HTC-C3
  IC50: 175 µM
HL-60
  IC50: 157 µM
ATN-1
  IC50: 601 µM
MDA-MB-175-VII
  IC50: > 4000 µM
A498
  IC50: 663 µM
OAW-42
  IC50: 425 µM
LB373-MEL-D
  IC50: 710 µM
EW-24
  IC50: 2290 µM
RPMI-8226
  IC50: 870 µM
IST-SL1
  IC50: 492 µM
ML-2
  IC50: 178 µM
SCC-15
  IC50: 1030 µM
A253 cell line
  IC50: 232 µM
HC-1
  IC50: 569 µM
TGW
  IC50: > 4000 µM
SHP77
  IC50: 821 µM
LB831-BLC
  IC50: 911 µM
MSTO-211H
  IC50: > 4000 µM
SNU-449
  IC50: 92.5 µM
Becker
  IC50: 274 µM
CAL-62
  IC50: 1050 µM
JVM-3
  IC50: > 4000 µM
D-336MG
  IC50: > 4000 µM
NCI-H1651
  IC50: 1360 µM
SF-539
  IC50: 310 µM
SW1573
  IC50: 2520 µM
EW-3
  IC50: 1890 µM
BB49-HNC
  IC50: 611 µM
SK-UT-1
  IC50: 1050 µM
647-V
  IC50: 93.5 µM
P30-OHK
  IC50: 467 µM
LS-513
  IC50: 1850 µM
NY
  IC50: 725 µM
G-401
  IC50: 1460 µM
H4
  IC50: 177 µM
BCPAP
  IC50: 209 µM
A4-Fuk
  IC50: 45 µM
NCI-H1755
  IC50: 2740 µM
YKG-1
  IC50: 767 µM
HuCCT-1
  IC50: 211 µM
NCI-H1092
  IC50: 1200 µM
TCC-SUP
  IC50: 432 µM
SJSA-1
  IC50: 278 µM
NCI-H209
  IC50: 1130 µM
GR-ST
  IC50: 213 µM
